Assay results from patent publication US12115166B2, “Corticotropin releasing factor receptor antagonists” (Spruce Biosciences, Inc., priority 2017, dated 2024).

Assays:
[1] = Study 1: single-escalating oral dose pharmacokinetics in healthy adult subjects (fed, and 150 mg fasted); format: in vivo, human; conditions: 50 to 800 mg, fed state; formal test inconclusive
Experimental: Study 1 was the first-in-human study that investigated the safety, tolerability, and PK of single-escalating doses of Compound 1, given orally, to healthy adult subjects. […] The data from this study were used for the selection of doses for Study 2.
In Study 1, Compound 1 was administered to healthy adult subjects as a single PO dose of 2, 10, 50, 150, 400, or 800 mg in the fed state and 150 mg in the fasted state. Absorption occurred moderately late, achieving peak Cmax between 4 to 6 hours following dosing in the fed state.
When Compound 1 was given in the fed state, median time to reach maximum plasma concentration (Tmax) occurred between 4 and 6 hours.
As part of this single-dose escalation study, a food effect PK investigation was performed to examine Compound 1 exposures in both the fed and fasted states at the 150-mg dose level. A total of 6 subjects were administered 150 mg Compound 1 in each of these 2 dosing groups. Of these 6 subjects, 4 subjects received Compound 1 at the same dose in both fed and fasted states. […] Table 6 provides a summary of the PK parameters at the 150-mg dose level under both fed and fasted state conditions.
PK parameters AUC0-∞ and Cmax were analyzed separately for dose proportionality for Compound 1 from 50 to 800 mg when administered in the fed state. […]

CRF1 receptor = biological target: T1, CRF1 receptor (Homo sapiens, UniProt P34998); assay: Phase 2 study in adults with classic CAH: hormone response (ACTH, 17-OHP, androstenedione); format: in vivo; conditions: CAH patients
T1 construct: from tissue; host or cells: living human patients
T1 sequence (P34998 24-415): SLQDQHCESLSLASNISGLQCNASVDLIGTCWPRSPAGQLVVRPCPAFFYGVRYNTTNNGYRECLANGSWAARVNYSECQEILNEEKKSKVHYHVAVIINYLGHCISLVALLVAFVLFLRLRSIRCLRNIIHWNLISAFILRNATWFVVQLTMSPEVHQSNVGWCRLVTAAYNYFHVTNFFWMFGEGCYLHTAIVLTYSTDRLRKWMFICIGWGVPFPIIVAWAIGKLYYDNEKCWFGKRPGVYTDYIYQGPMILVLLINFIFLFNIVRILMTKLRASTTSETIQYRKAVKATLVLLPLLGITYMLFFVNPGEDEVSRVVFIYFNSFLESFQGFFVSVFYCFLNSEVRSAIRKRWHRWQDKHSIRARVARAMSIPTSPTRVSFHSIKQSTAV
From the text: Cohort A of the Phase 2 Study includes a 6-week, multiple-dose, dose escalation study of Compound 1 for the treatment of adults with classic CAH. After screening, eligible patients will be enrolled into a 6-week treatment period followed by a 4-week washout/safety follow-up period.
This cohort will be conducted in approximately 9 patients, who will receive Compound 1 daily for up to 6 weeks. Compound 1 will be administered as an oral daily dose. Patients will undergo titration of Compound 1 through three escalating dosage strengths at 2-week intervals. […]
Patients in Cohort B will receive study drug at 200 mg BID, with a dose in the morning and a dose in the evening, either with a meal or consumption of a standardized snack. For Cohorts C and D, the dose level and the frequency and timing of dosing will be determined based on interim data from the previous cohorts. […]
Outcome Measures Primary Outcome Measure: • 1. […] To assess the efficacy of Compound 1 in subjects with classic CAH as measured by percent and absolute change in 17-OHP compared to baseline. […] To explore the dose(s) of Compound 1 that cause pharmacodynamics changes in plasma concentrations of ACTH, androstenedione, and testosterone, as measured by the absolute and percent change from baseline by dose. • 4. […]

## CCC(CC)c1cc(C)nc2c(-c3sc(N4CCOCC4)nc3Cl)c(C)nn12 [Compound 1, 3-(4-Chloro-2-(morpholin-4-yl)thiazol-5-yl)-7-(1-ethylpropyl)-2,5-dimethylpyrazolo(1,5-a)pyrimidine]
[1]
  dose proportionality of Cmax: more than dose proportional
CRF1 receptor
  morning rise in A4: attenuates
